Test results from US7396837B2, “Antitumoral analogs of lamellarins” (Pharma Mar, S.A.U., priority 2002, dated 2008).

Legend:
K-562 = assay: SRB colorimetric cell growth inhibition assay, K-562; format: cell-based; details: Homo sapiens, K562, K-562
Procedure, shortened: (§1)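 Quantitation uses the sulforhodamine B reaction on cells exposed to sample for the whole assay period; results (mean ± SD, n = 3 wells) yield GI, TGI and LC.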

SK-BR-3 = assay: SRB colorimetric cell growth inhibition assay, SK-BR-3; format: cell-based; details: Homo sapiens, SK-BR-3, SK-BR-3
Procedure, shortened: as §1

DU-145 = assay: SRB colorimetric cell growth inhibition assay, DU-145; format: cell-based; details: Homo sapiens, DU-145, DU-145
Procedure, shortened: as §1

A-549 = assay: SRB colorimetric cell growth inhibition assay, A-549; format: cell-based; details: Homo sapiens, A549, A-549
Procedure, shortened: as §1

IGROV = assay: SRB colorimetric cell growth inhibition assay, IGROV; format: cell-based; details: Homo sapiens, IGROV
Procedure, shortened: as §1

PANC-1 = assay: SRB colorimetric cell growth inhibition assay, PANC-1; format: cell-based; details: Homo sapiens, PANC-1, PANC-1
Procedure, shortened: as §1

IGROV-ET = assay: SRB colorimetric cell growth inhibition assay, IGROV-ET (ET-743 resistant); format: cell-based; details: Homo sapiens, IGROV-ET
Procedure, shortened: as §1

LoVo-Dox = assay: SRB colorimetric cell growth inhibition assay, LoVo-Dox (MDR); format: cell-based; details: Homo sapiens, LOVO-DOX
Procedure, shortened: as §1

HT-29 = assay: SRB colorimetric cell growth inhibition assay, HT-29; format: cell-based; details: Homo sapiens, HT-29, HT-29
Procedure, shortened: as §1

LoVo = assay: SRB colorimetric cell growth inhibition assay, LoVo; format: cell-based; details: Homo sapiens, LoVo
Procedure, shortened: as §1

LNCaP = assay: SRB colorimetric cell growth inhibition assay, LNCaP; format: cell-based; details: Homo sapiens, LNCaP, LN-caP
Procedure, shortened: as §1

human topoisomerase I = target: T1, human topoisomerase I (Homo sapiens, UniProt P11387); assay: Topoisomerase I DNA relaxation assay (supercoiled plasmid DNA); format: biochemical; details: supercoiled plasmid DNA, each compound tested at 1 μM, agarose gel with ethidium bromide
T1 sequence (P11387 1-765): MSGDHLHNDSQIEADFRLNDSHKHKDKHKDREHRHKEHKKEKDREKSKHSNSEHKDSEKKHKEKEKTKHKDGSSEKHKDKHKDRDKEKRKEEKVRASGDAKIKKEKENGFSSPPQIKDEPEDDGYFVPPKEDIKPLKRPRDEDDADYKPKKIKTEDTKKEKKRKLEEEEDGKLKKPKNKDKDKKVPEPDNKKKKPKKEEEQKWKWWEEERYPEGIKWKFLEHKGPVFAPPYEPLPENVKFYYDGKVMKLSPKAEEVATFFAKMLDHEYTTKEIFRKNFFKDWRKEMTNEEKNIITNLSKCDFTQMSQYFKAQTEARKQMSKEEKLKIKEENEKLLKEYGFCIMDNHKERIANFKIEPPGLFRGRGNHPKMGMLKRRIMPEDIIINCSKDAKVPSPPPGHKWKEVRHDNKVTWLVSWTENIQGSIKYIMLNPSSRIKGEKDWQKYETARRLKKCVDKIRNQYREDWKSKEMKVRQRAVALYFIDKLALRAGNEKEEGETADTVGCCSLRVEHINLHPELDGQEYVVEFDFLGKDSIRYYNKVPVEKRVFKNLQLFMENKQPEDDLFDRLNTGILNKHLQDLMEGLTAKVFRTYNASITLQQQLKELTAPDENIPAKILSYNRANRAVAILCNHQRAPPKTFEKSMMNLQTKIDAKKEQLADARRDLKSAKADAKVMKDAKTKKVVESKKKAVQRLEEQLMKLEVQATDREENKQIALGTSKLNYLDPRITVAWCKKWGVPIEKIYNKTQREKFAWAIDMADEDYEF
Procedure, shortened: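 Test compounds (1 μM each) were present during topoisomerase I relaxation of supercoiled plasmid DNA. Relaxation was assessed on ethidium bromide-stained agarose gels.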

SK-MEL-28 = assay: SRB colorimetric cell growth inhibition assay, SK-MEL-28; format: cell-based; details: Homo sapiens, SK-MEL-28, MEL-28
Procedure, shortened: as §1

COc1cc(-c2c3c4cc(OC)c(OC(=O)[C@@H](N)CC(C)C)cc4oc(=O)c3n3ccc4cc(OC(=O)[C@@H](N)CC(C)C)c(OC)cc4c23)ccc1OC(=O)[C@@H](N)CC(C)C [Compound 39]
GI50 (K-562; GI=growth inhibition, read-out: GI50 K-562): 35.9 nM | CC50 (K-562; LC=cell killing (cytotoxic effect), read-out: LC50 K-562): 8470 nM | IC (TGI) (K-562; TGI=total growth inhibition (cytostatic effect), read-out: TGI K-562): 1080 nM | GI50 (SK-BR-3; GI=growth inhibition, read-out: GI50 SK-BR-3): 54.5 nM | CC50 (SK-BR-3; LC=cell killing (cytotoxic effect), read-out: LC50 SK-BR-3): 8470 nM | IC (TGI) (SK-BR-3; TGI=total growth inhibition (cytostatic effect), read-out: TGI SK-BR-3): 1460 nM | GI50 (DU-145; GI=growth inhibition, read-out: GI50 DU-145): 18 nM | CC50 (DU-145; LC=cell killing (cytotoxic effect), read-out: LC50 DU-145): 8470 nM | IC (TGI) (DU-145; TGI=total growth inhibition (cytostatic effect), read-out: TGI DU-145): 142 nM | GI50 (A-549; GI=growth inhibition, read-out: GI50 A-549): 46.4 nM | CC50 (A-549; LC=cell killing (cytotoxic effect), read-out: LC50 A-549): 8470 nM | IC (TGI) (A-549; TGI=total growth inhibition (cytostatic effect), read-out: TGI A-549): 855 nM | GI50 (IGROV; GI=growth inhibition, read-out: GI50 IGROV): 34.1 nM | CC50 (IGROV; LC=cell killing (cytotoxic effect), read-out: LC50 IGROV): 8470 nM | IC (TGI) (IGROV; TGI=total growth inhibition (cytostatic effect), read-out: TGI IGROV): 931 nM | GI50 (PANC-1; GI=growth inhibition, read-out: GI50 PANC-1): 164 nM | CC50 (PANC-1; LC=cell killing (cytotoxic effect), read-out: LC50 PANC-1): 8470 nM | IC (TGI) (PANC-1; TGI=total growth inhibition (cytostatic effect), read-out: TGI PANC-1): 8470 nM | GI50 (IGROV-ET; GI=growth inhibition, read-out: GI50 IGROV-ET): 55 nM | CC50 (IGROV-ET; LC=cell killing (cytotoxic effect), read-out: LC50 IGROV-ET): 8470 nM | IC (TGI) (IGROV-ET; TGI=total growth inhibition (cytostatic effect), read-out: TGI IGROV-ET): 369 nM | GI50 (LoVo-Dox; GI=growth inhibition, read-out: GI50 LOVO-DOX): 323 nM | CC50 (LoVo-Dox; LC=cell killing (cytotoxic effect), read-out: LC50 LOVO-DOX): 8470 nM | IC (TGI) (LoVo-Dox; TGI=total growth inhibition (cytostatic effect), read-out: TGI LOVO-DOX): 1810 nM | GI50 (HT-29; GI=growth inhibition, read-out: GI50 HT-29): 3040 nM | CC50 (HT-29; LC=cell killing (cytotoxic effect), read-out: LC50 HT-29): 8470 nM | IC (TGI) (HT-29; TGI=total growth inhibition (cytostatic effect), read-out: TGI HT-29): 8470 nM | GI50 (LoVo; GI=growth inhibition, read-out: GI50 LOVO): 321 nM | CC50 (LoVo; LC=cell killing (cytotoxic effect), read-out: LC50 LOVO): 8470 nM | IC (TGI) (LoVo; TGI=total growth inhibition (cytostatic effect), read-out: TGI LOVO): 2530 nM | GI50 (LNCaP; GI=growth inhibition, read-out: GI50 LN-caP): 27.9 nM | CC50 (LNCaP; LC=cell killing (cytotoxic effect), read-out: LC50 LN-caP): 8470 nM | IC (TGI) (LNCaP; TGI=total growth inhibition (cytostatic effect), read-out: TGI LN-caP): 252 nM | stimulation of DNA cleavage by topoisomerase I / inhibition of topoisomerase I (nicked DNA band) in DNA relaxation assay (human topoisomerase I): marked inhibition of topoisomerase I | GI50 (SK-MEL-28; GI=growth inhibition, read-out: GI50 MEL-28): 33.9 nM | CC50 (SK-MEL-28; LC=cell killing (cytotoxic effect), read-out: LC50 MEL-28): 8470 nM | IC (TGI) (SK-MEL-28; TGI=total growth inhibition (cytostatic effect), read-out: TGI MEL-28): 295 nM
